According to patent publication US20100227859A1, “TRICYCLIC COMPOUNDS AS MATRIX METALLOPROTEINASE INHIBITORS” (priority 2007, published 2010):

These compounds were tested against purified human MMP-12 enzyme (Homo sapiens, UniProt P39900) (assay: MMP-12 FRET assay). Conditions: substrate 20 μM, room temperature.
Assay type: biochemical
In short: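 Initial fluorescence rate (325/395 nm) of cleavage of MCA-Pro-Leu-Gly-Leu-Dpa(DNP)-Ala-Arg, 20 μM final, was followed for 30 min at room temperature after a 30 min enzyme–compound preincubation. Buffer: 50 mM HEPES pH 7.4, 100 mM NaCl, 5 mM CaCl2, 0.005% Brij-35, with 10% final DMSO. IC50 came from a Hill-type fit of rate versus inhibitor concentration.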

Sequence of purified human MMP-12 enzyme (P39900 106-470): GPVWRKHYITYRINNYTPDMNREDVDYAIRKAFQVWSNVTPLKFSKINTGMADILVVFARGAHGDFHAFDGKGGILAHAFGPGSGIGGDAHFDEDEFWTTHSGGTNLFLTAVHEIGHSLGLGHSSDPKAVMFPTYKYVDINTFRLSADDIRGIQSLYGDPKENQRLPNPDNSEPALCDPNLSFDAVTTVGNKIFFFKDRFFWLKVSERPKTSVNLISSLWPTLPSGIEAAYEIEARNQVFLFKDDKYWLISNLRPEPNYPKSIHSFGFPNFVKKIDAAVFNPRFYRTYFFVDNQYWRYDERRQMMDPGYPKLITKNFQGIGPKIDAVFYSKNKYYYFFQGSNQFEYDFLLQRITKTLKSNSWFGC

Question: How did the IC50 turn out when `CC(C)[C@@H](NS(=O)(=O)c1ccc2oc3cc(-c4nc5ccc(OC(F)(F)F)cc5s4)ccc3c2c1)C(=O)O` [Compound 301, (R)-3-methyl-2-(7-(6-(trifluoromethoxy)benzo[d]thiazol-2-yl)dibenzo[b,d]furan-2-sulfonamido)butanoic acid] was run?
Answer: 78 nM

Question: Which IC50 does the source give for `CC(C)[C@@H](NS(=O)(=O)c1ccc2oc3cc(-c4ccc(C(F)(F)F)cc4)ccc3c2c1)C(=O)O` [Compound 120, (R)-3-methyl-2-(7-(4-(trifluoromethyl)phenyl)dibenzo[b,d]furan-2-sulfonamido)butanoic acid] here?
Answer: 2.2 nM

Question: Which IC50 does the source give for `CC(C)[C@@H](NS(=O)(=O)c1ccc2oc3cc(-c4cc5ccccc5n4C)ccc3c2c1)C(=O)O` [Compound 121, (R)-3-methyl-2-(7-(1-methyl-1H-indol-2-yl)dibenzo[b,d]furan-2-sulfonamido)butanoic acid] here?
Answer: 140 nM

Question: How did the IC50 turn out when `CC(C)[C@H](NS(=O)(=O)c1ccc2c(c1)oc1ccc(-c3noc(C4CCOCC4)n3)cc12)C(=O)O` [Compound 260, (S)-3-methyl-2-(8-(5-(tetrahydro-2H-pyran-4-yl)-1,2,4-oxadiazol-3-yl)dibenzo[b,d]furan-3-sulfonamido)butanoic acid] was run?
Answer: 1.7 nM

Question: How did the IC50 turn out when `CC(C)[C@@H](NS(=O)(=O)c1ccc2sc3cc(-c4ccco4)ccc3c2c1)C(=O)O` [Compound 287, (R)-2-(7-(furan-2-yl)dibenzo[b,d]thiophene-2-sulfonamido)-3-methylbutanoic acid] was run?
Answer: 70 nM

Question: Which IC50 does the source give for `CC(C)[C@H](NS(=O)(=O)c1ccc2c(c1)oc1ccc(C3=CCNCC3)cc12)C(=O)O` [Compound 70, (S)-3-methyl-2-(8-(1,2,3,6-tetrahydropyridin-4-yl)dibenzo[b,d]furan-3-sulfonamido)butanoic acid] here?
Answer: 5.4 nM

Question: For `CC(C)[C@@H](NS(=O)(=O)c1ccc2sc3cc(-c4nc5ccccc5s4)ccc3c2c1)C(=O)O` [Compound 286, (R)-2-(7-(benzo[d]thiazol-2-yl)dibenzo[b,d]thiophene-2-sulfonamido)-3-methylbutanoic acid], which IC50 is on record?
Answer: 130 nM

Question: For `CC(C)[C@@H](NS(=O)(=O)c1ccc2oc3cc(-c4ccoc4)ccc3c2c1)C(=O)O` [Compound 96, (R)-2-(7-(furan-3-yl)dibenzo[b,d]furan-2-sulfonamido)-3-methylbutanoic acid], which IC50 is on record?
Answer: 13 nM

Question: Which IC50 does the source give for `CC(C)[C@H](NS(=O)(=O)c1ccc2c(c1)oc1ccc(-c3cccnc3)cc12)C(=O)O` [Compound 3, (S)-3-methyl-2-(8-(pyridin-3-yl)dibenzo[b,d]furan-3-sulfonamido)butanoic acid] here?
Answer: < 1.5 nM

Question: Which IC50 does the source give for `CC(C)[C@@H](NS(=O)(=O)c1ccc2oc3cc(-c4nccs4)ccc3c2c1)C(=O)O` [Compound 291, (R)-3-methyl-2-(7-(thiazol-2-yl)dibenzo[b,d]furan-2-sulfonamido)butanoic acid] here?
Answer: 5.2 nM

Question: `CC(C)[C@H](NS(=O)(=O)c1ccc2c(c1)oc1ccc(-c3nc(-c4ccc(C(F)(F)F)cc4)cs3)cc12)C(=O)O` [Compound 283, (S)-3-methyl-2-(8-(4-(4-(trifluoromethyl)phenyl)thiazol-2-yl)dibenzo[b,d]furan-3-sulfonamido)butanoic acid] was tested. Which IC50 did it give?
Answer: < 1.5 nM

Question: With `CC(C)[C@@H](NS(=O)(=O)c1ccc2oc3cc(-c4cc5cc(F)ccc5[nH]4)ccc3c2c1)C(=O)O` [Compound 122, (R)-2-(7-(5-fluoro-1H-indol-2-yl)dibenzo[b,d]furan-2-sulfonamido)-3-methylbutanoic acid] as the compound, how does the IC50 read?
Answer: 6.9 nM

Question: `CC(C)[C@H](NS(=O)(=O)c1ccc2c(c1)oc1ccc(-c3cc4ccccc4s3)cc12)C(=O)O` [Compound 13, (S)-2-(8-(benzo[b]thiophen-2-yl)dibenzo[b,d]furan-3-sulfonamido)-3-methylbutanoic acid] was tested. Which IC50 did it give?
Answer: 1.7 nM

Question: `CC(C)[C@H](NS(=O)(=O)c1ccc2c(c1)oc1ccc(C#CCN(C)C)cc12)C(=O)O` [Compound 2, (S)-2-(8-(3-(dimethylamino)prop-1-ynyl)dibenzo[b,d]furan-3-sulfonamido)-3-methylbutanoic acid] was tested. Which IC50 did it give?
Answer: 2.4 nM

Question: `CC(C)[C@H](NS(=O)(=O)c1ccc2c(c1)oc1ccc(-c3noc(-c4ccc(F)cc4)n3)cc12)C(=O)O` [Compound 272, (S)-2-(8-(5-(4-fluorophenyl)-1,2,4-oxadiazol-3-yl)dibenzo[b,d]furan-3-sulfonamido)-3-methylbutanoic acid] was tested. Which IC50 did it give?
Answer: < 1.5 nM

Question: With `COc1ccc(-c2ccc3c(c2)oc2ccc(S(=O)(=O)N[C@@H](C(=O)O)C(C)C)cc23)cn1` [Compound 102, (R)-2-(7-(6-methoxypyridin-3-yl)dibenzo[b,d]furan-2-sulfonamido)-3-methylbutanoic acid] as the compound, how does the IC50 read?
Answer: < 1.5 nM

Question: `CC(C)[C@@H](NS(=O)(=O)c1ccc2oc3cc(-c4cncnc4)ccc3c2c1)C(=O)O` [Compound 167, (R)-3-methyl-2-(7-(pyrimidin-5-yl)dibenzo[b,d]furan-2-sulfonamido)butanoic acid] was tested. Which IC50 did it give?
Answer: < 1.5 nM

Question: Which IC50 does the source give for `CC(C)c1nc(-c2ccc3c(c2)oc2cc(S(=O)(=O)N[C@H](C(=O)O)C(C)C)ccc23)no1` [Compound 154, (S)-2-(7-(5-isopropyl-1,2,4-oxadiazol-3-yl)dibenzo[b,d]furan-3-sulfonamido)-3-methylbutanoic acid] here?
Answer: 32 nM

Question: With `CC(C)[C@H](NS(=O)(=O)c1ccc2c(c1)oc1ccc(-c3nc4ccc(Cl)cc4s3)cc12)C(=O)O` [Compound 203, (S)-2-(8-(6-chlorobenzo[d]thiazol-2-yl)dibenzo[b,d]furan-3-sulfonamido)-3-methylbutanoic acid] as the compound, how does the IC50 read?
Answer: 4.1 nM

Question: Which IC50 does the source give for `CC(C)(C)c1nc(-c2ccc3oc4cc(S(=O)(=O)N[C@H](C(=O)O)C(C)(C)C)ccc4c3c2)no1` [Compound 257, (S)-2-(8-(5-tert-butyl-1,2,4-oxadiazol-3-yl)dibenzo[b,d]furan-3-sulfonamido)-3,3-dimethylbutanoic acid] here?
Answer: 9.1 nM

Question: For `CC(=O)c1ccc(-c2ccc3oc4cc(S(=O)(=O)N[C@H](C(=O)O)C(C)C)ccc4c3c2)s1` [Compound 32, (S)-2-(8-(5-acetylthiophen-2-yl)dibenzo[b,d]furan-3-sulfonamido)-3-methylbutanoic acid], which IC50 is on record?
Answer: < 1.5 nM

Question: For `CC(C)[C@H](NS(=O)(=O)c1ccc2c(c1)oc1ccc(-c3ccc(F)s3)cc12)C(=O)O` [Compound 124, (S)-2-(8-(5-fluorothiophen-2-yl)dibenzo[b,d]furan-3-sulfonamido)-3-methylbutanoic acid], which IC50 is on record?
Answer: < 1.5 nM

Question: Which IC50 does the source give for `CC(C)[C@@H](NS(=O)(=O)c1ccc2oc3cc(-c4cnn(Cc5ccccc5)c4)ccc3c2c1)C(=O)O` [Compound 175, (R)-2-(7-(1-benzyl-1H-pyrazol-4-yl)dibenzo[b,d]furan-2-sulfonamido)-3-methylbutanoic acid] here?
Answer: 12 nM

Question: With `CC(C)[C@H](NS(=O)(=O)c1ccc2c(c1)oc1cc(-c3ccco3)ccc12)C(=O)O` [Compound 78, (S)-2-(7-(furan-2-yl)dibenzo[b,d]furan-3-sulfonamido)-3-methylbutanoic acid] as the compound, how does the IC50 read?
Answer: < 1.5 nM

Question: Which IC50 does the source give for `CC(C)[C@H](NS(=O)(=O)c1ccc2c(c1)oc1ccc(-c3nc4c(F)cccc4s3)cc12)C(=O)O` [Compound 218, (S)-2-(8-(4-fluorobenzo[d]thiazol-2-yl)dibenzo[b,d]furan-3-sulfonamido)-3-methylbutanoic acid] here?
Answer: < 1.5 nM

Question: With `CC(C)[C@@H](NS(=O)(=O)c1ccc2oc3cc(-c4nc5c(F)cccc5s4)ccc3c2c1)C(=O)O` [Compound 299, (R)-2-(7-(4-fluorobenzo[d]thiazol-2-yl)dibenzo[b,d]furan-2-sulfonamido)-3-methylbutanoic acid] as the compound, how does the IC50 read?
Answer: 15 nM

Question: `CC(C)[C@@H](NS(=O)(=O)c1ccc2oc3cc(-c4noc(C5CCCCC5)n4)ccc3c2c1)C(=O)O` [Compound 192, (R)-2-(7-(5-cyclohexyl-1,2,4-oxadiazol-3-yl)dibenzo[b,d]furan-2-sulfonamido)-3-methylbutanoic acid] was tested. Which IC50 did it give?
Answer: 7.2 nM

Question: Which IC50 does the source give for `CC(C)C[C@@H](NS(=O)(=O)c1ccc2oc3cc(-c4noc(C(C)(C)C)n4)ccc3c2c1)C(=O)O` [Compound 278, (R)-2-(7-(5-tert-butyl-1,2,4-oxadiazol-3-yl)dibenzo[b,d]furan-2-sulfonamido)-4-methylpentanoic acid] here?
Answer: 7.2 nM

Question: For `CC(C)[C@H](NS(=O)(=O)c1ccc2c(c1)sc1cc(-c3ccc(Cl)o3)ccc12)C(=O)O` [Compound 182, (S)-2-(7-(5-chlorofuran-2-yl)dibenzo[b,d]thiophene-3-sulfonamido)-3-methylbutanoic acid], which IC50 is on record?
Answer: < 1.5 nM

Question: For `CCc1ccc(-c2ccc3c(c2)oc2ccc(S(=O)(=O)N[C@H](C(=O)O)C(C)C)cc23)s1` [Compound 242, (S)-2-(7-(5-ethylthiophen-2-yl)dibenzo[b,d]furan-2-sulfonamido)-3-methylbutanoic acid], which IC50 is on record?
Answer: 8.4 nM

Question: With `CC(C)[C@H](NS(=O)(=O)c1ccc2c(c1)oc1cc(-c3cnc(Cl)s3)ccc12)C(=O)O` [Compound 181, (S)-2-(7-(2-chlorothiazol-5-yl)dibenzo[b,d]furan-3-sulfonamido)-3-methylbutanoic acid] as the compound, how does the IC50 read?
Answer: < 1.5 nM

Question: `CC(C)[C@H](NS(=O)(=O)c1ccc2c(c1)oc1cc(-c3nc4ccc(F)cc4s3)ccc12)C(=O)O` [Compound 237, (S)-2-(7-(6-fluorobenzo[d]thiazol-2-yl)dibenzo[b,d]furan-3-sulfonamido)-3-methylbutanoic acid] was tested. Which IC50 did it give?
Answer: < 1.5 nM

Question: With `CC(C)[C@H](NS(=O)(=O)c1ccc2c(c1)oc1ccc(-c3cc(Cl)oc3Cl)cc12)C(=O)O` [Compound 95, (S)-2-(8-(2,5-dichlorofuran-3-yl)dibenzo[b,d]furan-3-sulfonamido)-3-methylbutanoic acid] as the compound, how does the IC50 read?
Answer: < 1.5 nM

Question: Which IC50 does the source give for `CC(C)[C@H](NS(=O)(=O)c1ccc2c(c1)oc1cc(-c3noc(C(C)(C)C)n3)ccc12)C(=O)O` [Compound 155, (S)-2-(7-(5-tert-butyl-1,2,4-oxadiazol-3-yl)dibenzo[b,d]furan-3-sulfonamido)-3-methylbutanoic acid] here?
Answer: 11 nM

Question: `Cc1cscc1-c1ccc2oc3cc(S(=O)(=O)N[C@H](C(=O)O)C(C)C)ccc3c2c1` [Compound 5, (S)-3-methyl-2-(8-(4-methylthiophen-3-yl)dibenzo[b,d]furan-3-sulfonamido)butanoic acid] was tested. Which IC50 did it give?
Answer: 2.2 nM
